Results as given in US20250144172A1, “ANTI-FIBROTIC SIALIDASE INHIBITOR COMPOUNDS AND METHODS OF USE” (The Texas A&M University System, priority 2016, published 2025).

Tests used:
[1] = system: mice with bleomycin-induced fibrosis; assay: mouse bleomycin model of pulmonary fibrosis; format: in vivo; details: day 21
Experimental: The successful aspiration of bleomycin into the lungs was confirmed by listening for a crackling noise heard after the aspiration. Mice were weighed daily, and euthanized using CO2 following NIH guidelines at day 21 after bleomycin aspiration. The experiment was performed in accordance with the recommendations in the Guide for the Care and Use of Laboratory Animals of the National Institutes of Health. The Texas A&M University Animal Use and Care Committee approved the protocol.
The BALs were clarified by centrifugation at 500×g for 10 minutes, and the supernatants were transferred to Eppendorf tubes. The supernatants were flash frozen with liquid nitrogen, and stored at −20° C. until further use.
After collection of BAL fluid, mouse lungs were inflated with prewarmed Optimal Cutting Temperature (OCT) embedding medium (VWR, Radnor, PA) and then embedded in OCT, frozen on dry ice, and then stored at −80° C. 6-micron cryosections of mouse lungs were mounted on Superfrost Plus® microscope slides (VWR). The sections on the slides were allowed to air-dry for 24-48 hours. The slides were then fixed in acetone at room temperature for 20 minutes and air-dried for 10 minutes.
Then, starting 24 hours after bleomycin had been administered, the mice were given daily intraperitoneal injections of 10 mg/kg DANA (Calbiochem) in PBS or 10 mg/kg oseltamivir (Sigma) in PBS. Both inhibitors are quite polar and thus probably remain in the extracellular space. Assuming 2 ml of extracellular space in a 20 gram mouse, these doses would then be ˜3 μM. At day 21, mice were sacrificed and BAL and cryosections of lungs were obtained as described for Example 3. The experiment was performed in accordance with the recommendations in the Guide for the Care and Use of Laboratory Animals of the National Institutes of Health. The Texas A&M University Animal Use and Care Committee approved the protocol.
Treatment of mice with oropharyngeal bleomycin results in an initial inflammation, and then a fibrosis that has begun by day 10 after bleomycin treatment. To determine if sialidase inhibitors decrease fibrosis when treatment starts after the initial inflammation stage and when fibrosis is present, mice were treated with oropharyngeal bleomycin to induce symptoms of pulmonary fibrosis as described above. Then, starting 10 days after bleomycin had been administered, the mice were given daily intraperitoneal injections of 10 mg/kg DANA (Calbiochem) in PBS or 10 mg/kg oseltamivir (Sigma) in PBS. At day 21, mice were sacrificed and BAL and cryosections of lungs were obtained as described above. The experiment was performed in accordance with the recommendations in the Guide for the Care and Use of Laboratory Animals of the National Institutes of Health. The Texas A&M University Animal Use and Care Committee approved the protocol.
To determine if sialidase inhibitors could also reduce TGF-β1 levels in mice, mice were treated with bleomycin or saline, then injected daily with saline, DANA or oseltamivir starting at day 10 after bleomycin treatment, as described in Example 9. The mice were euthanized at day 21 and sections of lung tissue were stained for TGF-β1. Results are presented in FIG. 11A and are representative of results for three mice per group.

human PBMC [2] = assay: TGF-β1 accumulation by human PBMC (antibody staining and ELISA); format: cell-based
Experimental: To determine if sialidases might cause cells to accumulate intracellular and extracellular TGF-β1, human PBMC were cultured with sialidases in 96 well plates at 5×10^5 cells/ml and 200 μl/well in FibroLife serum-free medium for five days, then air dried. The levels of TGF-β1 in or on the cells was detected by staining with an antibody against TGF-β1. Photomicrographs were analyzed by counting stained cells (FIG. 7B) and quantifying staining intensity using ImageJ (FIG. 7C).
PBMC were cultured in 96 well plates at 5×10^5 cells/ml and 200 μl/well in FibroLife serum-free medium. When the cells were plated, recombinant human sialidases were added to final concentrations of 200 ng/ml, and DANA or oseltamivir were added to 3 μM. After 5 days, culture supernatants were analyzed using a TGF-β1 ELISA kit (R&D Systems).

human PBMC [3] = assay: fibrocyte formation in human PBMC, serum-free medium; format: cell-based; details: 5 days; for fibrocyte formation / differentiation: 100 ng/ml sialidase, 10 μg/ml DANA or 1 μg/ml SAP
Experimental: Human peripheral blood was collected from healthy adult volunteers who gave written consent and with specific approval from the Texas A&M University human subjects Institutional Review Board. Peripheral blood mononuclear cells (PBMC) were isolated from blood using Ficoll-Paque Plus (GE Healthcare Biosciences, Piscataway, NJ). Human PBMC were incubated in serum-free medium (FibroLife basal media (LM-0001, Lifeline Cell Technology, Walkersville, MD), supplemented with 10 mM HEPES (Sigma-Aldrich, St. Louis, MO), 1x non-essential amino acids (Sigma-Aldrich), 1 mM sodium pyruvate (Sigma-Aldrich), 2 mM glutamine (Invitrogen, Carlsbad, CA), 100 U/ml penicillin, 100 μg/ml streptomycin (Sigma-Aldrich), and 1x ITS-3 (Sigma-Aldrich) in the presence of absence of 100 ng/ml recombinant human sialidases (Origene, Rockville MD), 10 μg/ml DANA (Calbiochem, San Diego, CA), or 1 μg/ml human SAP (Calbiochem). After 5 days, fibrocytes were counted, and results are presented in FIG. 5.

human NEU3 = human NEU3 (Homo sapiens (Human), UniProt Q9UQ49); assay: human NEU3 sialidase inhibition; details: read-out: NEU3 IC50; human NEU3
[4] = system: human monocytes and lymphocytes; assay: sialidase levels in human PBMC cultured with IL-6 (flow cytometry); format: cell-based; details: 100 and 1000 pg/ml IL-6; three days
Experimental: To determine the effects of IL-6 on NEU3 production by human PBMC, PBMC were cultured as above in serum-free medium at 10^5 cells/ml with 2 ml/well in 6-well tissue culture plates (VWR) in the presence or absence of recombinant human interleukin-6 (IL-6) (BioLegend). After three days, the medium was carefully removed and the cells were washed with 1 ml of phosphate buffered saline (PBS) at room temperature. The cells were detached with 500 μl of Accutase cell detachment solution (VWR) per well for 6 minutes at 37° C. 1000 μl RPMI medium supplemented as described above with BCS, penicillin, streptomycin and glutamine was added per well to neutralize the Accutase. After pipetting the cell solutions 4 times, the cells were placed in sterile 1.7 ml microtubes (Genesee Scientific, San Diego, CA) and cells were collected by centrifugation at 5000×g for 10 minutes at 4° C. The pelleted cells were washed twice by resuspension with 1000 μl of ice-cold PBS and centrifugation. The cells were resuspended in 200 μl of ice-cold 2% (w/v) paraformaldehyde (EMS, Hatfield, PA), in PBS for 10 minutes on ice for fixation. 1000 μl of ice-cold PBS was added and cells were collected by centrifugation. The cells were resuspended in 200 μl of ice-cold 2% (w/v) bovine serum albumin (BSA) (VWR) in PBS (PBSA), for 10 minutes on ice for blocking. […]

[5] = recombinant human sialidase activity, 4MU-NANA cleavage at pH 6.4 and 7.0; format: biochemical
Experimental: In general, sialidase activity, including human sialidase activity, may be assessed at 37° C. in the presence of buffers ranging in pH from 3.7 to 7.4. Buffers with pH 3.7, 4.0, 4.6, 5.2 and 5.6 are 100 mM sodium acetate buffers. Buffers with pH 5.8, 6.4, 7.0 and 8.0 are based on Phosphate-Buffered Saline (PBS), with addition of 12 N HCl or 1 M NaOH to adjust the pH. Bovine serum albumin (BSA) is added to the buffer at a concentration of 100 ug/ml. Sialidase at a final concentration of 300 ng/ml is then added to the buffer. A sialidase inhibitor is then added to the mixture at a series of final concentrations. The reaction mixture is incubated for 30 minutes to allow the inhibitor to bind the sialidase. The fluorometric substrate 4MU-NANA [2′-(4-Methylumbelliferyl)-α-D-N-acetylneuraminic acid sodium salt hydrate is then added at a final concentration of 200 μM. Control reactions have no added inhibitor. The total volume of each reaction mixture is 0.1 ml. The cleavage of 4MU-NANA is then monitored by fluorescence every 20 minutes for 5 hours with excitation light at 360 nm and the fluorescence emission at 460 nm.
The fluorescence in the absence of sialidases is subtracted from all readings. The fluorescence of known concentrations of 4-methylumbelliferone is used to convert fluorescence to moles of product. […]

A549 cells = assay: sialidase staining of A549 cells cultured with TGF-β1; format: cell-based, human; details: 10 ng/ml TGF-β1, three days
Experimental: (§1) TGF-β1 is strongly associated with fibrosis so its effects on sialidase expression were determined. Human lung adenocarcinoma cell line A549, human small airway epithelial cells, human pulmonary fibroblasts, and human immune cells were cultured with or without 10 ng/ml of recombinant active TGF-β1, which is a standard concentration used in tissue culture experiments. After three days for A549 cells, airway epithelial cells, and fibroblasts, or five days for immune cells, the cells were stained with antibodies against sialidases.

[6] = system: human small airway epithelial cells; assay: sialidase staining of human small airway epithelial cells cultured with TGF-β1; format: cell-based; details: 10 ng/ml TGF-β1, three days
Experimental: as §1

[7] = system: human pulmonary fibroblasts; assay: human pulmonary fibroblasts cultured with TGF-β1; format: cell-based; details: 10 ng/ml TGF-β1, three days
Experimental: as §1

human PBMC [8] = assay: sialidase staining of human PBMC cultured with TGF-β1; format: cell-based; details: 10 ng/ml TGF-β1, five days
Experimental: as §1

Sequence of human NEU3 (Q9UQ49 whole entry): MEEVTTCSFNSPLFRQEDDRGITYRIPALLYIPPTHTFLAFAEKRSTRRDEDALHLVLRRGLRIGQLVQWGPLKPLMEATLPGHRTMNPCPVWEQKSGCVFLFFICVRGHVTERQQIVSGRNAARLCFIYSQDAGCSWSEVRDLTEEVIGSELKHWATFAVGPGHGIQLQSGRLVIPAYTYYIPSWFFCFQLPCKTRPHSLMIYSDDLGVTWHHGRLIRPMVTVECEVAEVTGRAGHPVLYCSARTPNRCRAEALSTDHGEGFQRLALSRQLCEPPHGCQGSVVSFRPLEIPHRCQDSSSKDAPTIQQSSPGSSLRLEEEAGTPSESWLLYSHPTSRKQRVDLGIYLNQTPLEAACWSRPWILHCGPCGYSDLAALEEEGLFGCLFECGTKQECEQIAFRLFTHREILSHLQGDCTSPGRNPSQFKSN

## CC(=O)N[C@H]1[C@H]([C@H](O)[C@H](O)CO)OC(C(=O)O)=C[C@@H]1O [Compound 1, N-Acetyl-2,3-dehydro-2-deoxyneuraminic acid, reference compound]
[1]; 10 mg/kg daily i.p. starting 24 hours after bleomycin
  collagen deposition in the lungs (Sirius red): reduced
[1]; 10 mg/kg daily i.p. starting at day 10
  collagen deposition in the lungs (Sirius red): reduced
[1]; daily injection starting at day 10
  TGF-β1 levels in lung tissue (staining): reduced TGF-β1 levels
Human PBMC [2]; inhibitor 3 μM, sialidases 200 ng/ml, 5 days, ELISA
  effects of NEU2 and NEU3 on extracellular TGF-β1: blocked
Human PBMC [3]; 10 μg/ml DANA with 100 ng/ml NEU4
  NEU4 potentiation of fibrocyte differentiation: inhibited the NEU4 potentiation of fibrocyte differentiation
Human PBMC [3]
  fibrocyte formation / differentiation: inhibited fibrocyte differentiation
Human NEU3
  IC50: 61 µM

## IL-6: recombinant human interleukin-6 (IL-6) (BioLegend)
[4]
  levels of NEU3 in human monocytes and lymphocytes: significantly increased

## NEU1: recombinant human NEU1 (sialidase 1), human neuraminidase 1
[5]; pH 6.4
  Sialidase activity: 12.8 ± 1.3 μmole/min/mg protein
[5]; pH 7.0
  Sialidase activity: 7.2 ± 0.9 μmole/min/mg protein
Human PBMC [2]; recombinant sialidase 200 ng/ml, five days
  accumulation of TGF-β1: no significant effect
Human PBMC [3]; 100 ng/ml sialidase with 1 μg/ml SAP
  ability of SAP to inhibit fibrocyte formation: did not potentiate fibrocyte differentiation or counteract SAP
Human PBMC [3]
  fibrocyte formation / differentiation: did not potentiate fibrocyte differentiation

## TGF-β1: recombinant active TGF-β1
A549 cells
  sialidase levels (antibody staining): increase levels of NEU3
[6]
  sialidase levels (antibody staining): increase levels of NEU3, and slightly increased levels of NEU1
[7]
  proliferation of human pulmonary fibroblasts: increased the proliferation
[7]; pulmonary fibroblasts
  sialidase levels (antibody staining): increase levels of NEU3
Human PBMC [8]
  sialidase levels (antibody staining): increased levels of NEU2 and NEU3 in some cells
